“Also recorded” adds a separate entry of the source.
Columns and labels:
[1] = Stability at 40° C./75% RH in a glass bottle with an open state for 4 weeks; assay type: physicochemical
Protocol: Stabilities of crystalline forms of Type I, Type II and Type VII, and amorphous of (2R,4S)-1-{N-(3,5-bistri-fluoromethylbenzyl)-N-methyl}aminocarbonyl-2-(4-fluoro-2-methylphenyl)-4-(2-hydroxyethylaminocarboxyloxy)piperidine were observed under the conditions of at 40° C./75% RH in a glass bottle with an open state for 4 weeks. […] Accordingly, improvement in stability according to crystallization could be confirmed.

[2] = Hygroscopicity by Dynamic Vapor Sorption; assay type: physicochemical; conditions: DVS-1, 25° C., relative humidity range 0 to 90%, 10 mg
Protocol: With regard to Type I and Type II crystalline forms of (2R,4S)-1-{N-(3,5-bistrifluoromethylbenzyl)-N-methyl}-aminocarbonyl-2-(4-fluoro-2-methylphenyl)-4-(2-hydroxy-ethylaminocarboxyloxy)piperidine, hygroscopicity was measured according to the following mentioned conditions.
Device: Dynamic Vapor Sorption device DVS-1 manufactured by Surface Measurement Systems, UK Amount of specimen: 10 mg Measured temperature: 25° C. Relative humidity range: 0 to 90% Experimental example 1 Neurokinin-1 (NK1) receptor binding inhibitory action Human lymphoblastoma IM-9 cells (5 10^6 cell/tube) were reacted with 0.3 nM [^3H] […] The reaction mixture was subjected to suction filtration with a GF/C glass filter which had previously been treated with 0.3% polyethyleneimine, washed with 0.3 ml of ice-cold reaction buffer containing no bovine serum albumin and various kinds of protein decomposition enzyme inhibitors twice, and radioactivity (dpm) on the filter was measured by a liquid scintillation counter. […]

[3] = target: T1, human neurokinin-1 receptor (Homo sapiens, UniProt P25103); assay: Neurokinin-1 (NK1) receptor binding inhibitory action, [3H](Sar9, Met11(O2)) Substance P on IM-9 cells
T1 construct: Human lymphoblastoma IM-9 cells (5 10^6 cell/tube) were reacted with 0.3 nM; endogenous in cells; host or cells: human lymphoblastoma IM-9 cells
Source text: Measurements on the crystalline form of the present invention can be carried out, for example, according to the method described in European Journal of Pharmacology, vol. 254, pages 221-227 (1994) with respect to a neurokinin-1 receptor binding action, and according to the method described in European Journal of Pharmacology, vol. 265, pages 179-183 (1994) with respect to an action against a neurokinin-1 receptor […] inducing action, further according to the method described in Journal of Urology, vol.
Device: Dynamic Vapor Sorption device DVS-1 manufactured by Surface Measurement Systems, UK Amount of specimen: 10 mg Measured temperature: 25° C. Relative humidity range: 0 to 90% Experimental example 1 Neurokinin-1 (NK1) receptor binding inhibitory action Human lymphoblastoma IM-9 cells (5 10^6 cell/tube) were reacted with 0.3 nM [^3H] (Sar^9, Met^11 (O2)) Substance P and the prepared Type II crystalline form of (2R,4S)-1-{N-(3,5-bistrifluoromethylbenzyl)-N-methyl}aminocarbonyl-2-(4-fluoro-2-methylphenyl)-4-(2-hydroxyethylaminocarboxyloxy)-piperidine in 0.5 ml of 50 mM Tris-HCl (pH 7.4, 25° C.) containing 150 mM NaCl, 3 mM MnCl2, 40 μg/ml bacitracin, 4 μg/ml Leupeptin, 4 μg/ml Chymostatin, 4 μg/ml Phosphoramidon and 0.02% bovine serum albumin at room temperature for 60 minutes according to the method described in European Journal of Pharmacology, vol. 254, pp. 221-227 (1994). The reaction mixture was subjected to suction filtration with a GF/C glass filter which had previously been treated with 0.3% polyethyleneimine, washed with 0.3 ml of ice-cold reaction buffer containing no bovine serum albumin and various kinds of protein decomposition enzyme inhibitors twice, and radioactivity (dpm) on the filter was measured by a liquid scintillation counter. A specific binding amount was obtained by subtracting non-specific binding amount (L-703606 (10 μM) having NK1 receptor antagonistic action) from a total binding amount.

T1 sequence (P25103 whole entry): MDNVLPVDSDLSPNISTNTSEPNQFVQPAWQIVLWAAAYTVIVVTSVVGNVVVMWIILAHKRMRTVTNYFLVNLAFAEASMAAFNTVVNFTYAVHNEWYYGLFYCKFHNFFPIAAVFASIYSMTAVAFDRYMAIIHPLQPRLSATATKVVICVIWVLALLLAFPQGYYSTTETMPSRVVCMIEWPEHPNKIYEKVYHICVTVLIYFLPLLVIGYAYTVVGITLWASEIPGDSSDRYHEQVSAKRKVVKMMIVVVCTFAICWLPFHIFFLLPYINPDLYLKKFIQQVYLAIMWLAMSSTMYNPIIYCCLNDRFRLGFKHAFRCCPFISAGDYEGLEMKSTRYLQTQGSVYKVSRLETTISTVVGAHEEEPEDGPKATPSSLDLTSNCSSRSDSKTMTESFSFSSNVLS

change in appearance [1] | hygroscopicity (change in weight under high humidity conditions) [2] | moisture absorption [1] | IC50 ([3]; Human lymphoblastoma IM-9 cells, 0.3 nM [3H](Sar9, Met11(O2)) Substance P, room temperature 60 minutes, read-out: IC50 value, NK1 receptor binding inhibition) | Ki ([3]; Human lymphoblastoma IM-9 cells, 0.3 nM [3H](Sar9, Met11(O2)) Substance P, room temperature 60 minutes, read-out: Ki value, NK1 receptor binding inhibition) | SMILES | neurokinin-1 receptor binding action (in words) ([3]; human NK1 receptor, IM-9 cells)
no change in appearance | no hygroscopicity | – | – | – | Cc1cc(F)ccc1[C@H]1C[C@@H](OC(=O)NCCO)CCN1C(=O)N(C)Cc1cc(C(F)(F)F)cc(C(F)(F)F)c1 [Type I, (2R,4S)-1-{N-(3,5-bistrifluoromethylbenzyl)-N-methyl}aminocarbonyl-2-(4-fluoro-2-methylphenyl)-4-(2-hydroxyethylaminocarbonyloxy)piperidine] | –
no change in appearance | no hygroscopicity | – | 4.59 nM | 2.22 nM | Cc1cc(F)ccc1[C@H]1C[C@@H](OC(=O)NCCO)CCN1C(=O)N(C)Cc1cc(C(F)(F)F)cc(C(F)(F)F)c1 [Type II, (2R,4S)-1-{N-(3,5-bistrifluoromethylbenzyl)-N-methyl}aminocarbonyl-2-(4-fluoro-2-methylphenyl)-4-(2-hydroxyethylaminocarbonyloxy)piperidine] | inhibited said Substance P with concentration-dependently; also recorded: showed a human neurokinin-1 receptor binding action with concentration-dependently
no change in appearance | – | – | – | – | Cc1cc(F)ccc1[C@H]1C[C@@H](OC(=O)NCCO)CCN1C(=O)N(C)Cc1cc(C(F)(F)F)cc(C(F)(F)F)c1 [Type VII, (2R,4S)-1-{N-(3,5-bistrifluoromethylbenzyl)-N-methyl}aminocarbonyl-2-(4-fluoro-2-methylphenyl)-4-(2-hydroxyethylaminocarbonyloxy)piperidine] | –

SMILES | change in appearance [1] | hygroscopicity (change in weight under high humidity conditions) [2] | moisture absorption [1] | IC50 ([3]; Human lymphoblastoma IM-9 cells, 0.3 nM [3H](Sar9, Met11(O2)) Substance P, room temperature 60 minutes, read-out: IC50 value, NK1 receptor binding inhibition) | Ki ([3]; Human lymphoblastoma IM-9 cells, 0.3 nM [3H](Sar9, Met11(O2)) Substance P, room temperature 60 minutes, read-out: Ki value, NK1 receptor binding inhibition) | neurokinin-1 receptor binding action (in words) ([3]; human NK1 receptor, IM-9 cells)
Cc1cc(F)ccc1[C@H]1C[C@@H](OC(=O)NCCO)CCN1C(=O)N(C)Cc1cc(C(F)(F)F)cc(C(F)(F)F)c1 [amorphous, (2R,4S)-1-{N-(3,5-bistrifluoromethylbenzyl)-N-methyl}aminocarbonyl-2-(4-fluoro-2-methylphenyl)-4-(2-hydroxyethylaminocarbonyloxy)piperidine] | marked change in appearance (white powder→white lump) | – | moisture absorption was admitted | – | – | –

Source: patent publication US20100305159A1, “CRYSTALLINE FORM OF PIPERIDINE COMPOUND” (MITSUBISHI TANABE PHARMA CORPORATION, priority 2007, published 2010)
